Laboratory results published in patent US11959909B2, “Basal ganglia-on-chip for screening therapeutic agents for brain and nervous system diseases” (priority 2018, dated 2024).
Entries after “also recorded” stand apart in the source; their conditions may differ.

Tested on: dopaminergic neurons
Experiment: Drug screening on Parkinson's disease-like basal ganglia-on-a-chip model (6-OHDA induced)
Type: cell-based
Details: 50 μM L-dopa after Parkinson's disease-like model established with 100 μM 6-OHDA
Source text: In order to fabricate a basal ganglia-on-a-chip, SH-SY5Y (ATCC CRL-2266) was used as dopaminergic neurons, and F3-NG1 (provided from professor Hong-Joon Lee at Chung-Ang University) were allowed to differentiate and then used as GABAergic neurons and glutamatergic neurons. Parkinson's disease is caused by the gradual loss of dopaminergic neurons distributed in the substantia nigra. 6-Hydroxydopamine (6-OHDA) causes oxidative stress to induce mitochondrial migration of c-Jun N-terminal kinase (JNK), and the activated JNK after mitochondrial migration causes mitochondrial dysfunction, contributing to apoptosis of dopaminergic neurons, occurring in Parkinson's disease. Based on this, a Parkinson's disease model was developed using 100 μM 6-OHDA.

Structure (SMILES): N[C@@H](Cc1ccc(O)c(O)c1)C(=O)O [L-dopa, L-3,4-dihydroxyphenylalanine]
- proliferation of dopaminergic neurons: increase in the proliferation of dopaminergic neurons; also recorded: proliferation of dopaminergic neurons was confirmed
